The assay deals with TDP-43. Put plainly: Motor neuron culture with Aβ1-42 insult: extranuclear TDP-43 accumulation. Type of assay: cell-based, rat. How it is done: Primary motor neuron (MN) cultures generated from rat spinal cord were treated with 20 μM amyloid beta 1-42 peptide (Aβ1-42). […] This model was used to determine the effect of tacrolimus on TDP-43 toxicity in motor neurons. […] After permeabilisation with 0.1% saponin, one group of cells was incubated for 2 hours with a) mouse monoclonal anti-microtubule-associated-protein 2 (MAP-2) antibody, and b) rabbit polyclonal anti-TDP-43 antibody. The anti-MAP-2 antibody was used to determine MN survival (number of stained MN) and MN neurite length. The anti-TDP-43 antibody was used to examine extranuclear TDP-43: the area of extranuclear TDP-43 staining per MN was calculated by normalising to the number of MAP-2 positive cells.

As to `C=CC[C@@H]1/C=C(\C)C[C@H](C)C[C@H](OC)[C@H]2O[C@@](O)(C(=O)C(=O)N3CCCC[C@H]3C(=O)O[C@H](/C(C)=C/[C@@H]3CC[C@@H](O)[C@H](OC)C3)[C@H](C)[C@@H](O)CC1=O)[C@H](C)C[C@@H]2OC` [tacrolimus, Tacrolimus], where the note is “100 nM tacrolimus, 24 hours, control cells increased by 191%”, the “increase of TDP-43:MN ratio in response to Aβ1-42 insult relative to unchallenged cells” value is 35%. Besides, for the setting “all 3 concentrations, 24 hours after Aβ1-42 insult”, the “TDP-43 levels normalised to motor neuron number (TDP-43:MN ratio)” value was “significantly reduced TDP-43 levels”.

For the origin of these results see patent publication US20180085356A1, “METHOD OF TREATING DISEASE CHARACTERISED BY PROTEIN AGGREGATE DEPOSITION IN NEURONAL CELLS” (CHRONOS THERAPEUTICS LIMITED, priority 2013, published 2018).
